Data published in patent US8822754B2, “Ecdysone receptor-based inducible gene expression system” (Intrexon Corporation, priority 2000, dated 2014).

Tests used:
GAL4RXR + VP16CfEcR = assay: Transactivation of reporter genes through switch 1.3 in 3T3 cells; conditions: GAL4MmRXRDEF/VP16CfEcRCDEF (switch 1.3), 1.0 μM ligand
From the text: (§1) In various cellular backgrounds, including mammalian cells, insect ecdysone receptor (EcR) heterodimerizes with retinoid X receptor (RXR) and, upon binding of ligand, transactivates genes under the control of ecdysone response elements. Applicants constructed several EcR-based gene expression cassettes based on the spruce budworm Choristoneura fumiferana EcR (“CfEcR”; full length polynucleotide and amino acid sequences are set forth in SEQ ID NO: 49 and SEQ ID NO: 50, respectively), C. fumiferana ultraspiracle (“CfUSP”; full length polynucleotide and amino acid sequences are set forth in SEQ ID NO: 51 and SEQ ID NO: 52, respectively), and mouse Mus musculus RXRα (MmRXRα; full length polynucleotide and amino acid sequences are set forth in SEQ ID NO: 53 and SEQ ID NO: 54, respectively). The prepared receptor constructs comprise a ligand binding domain of EcR and of RXR or of USP; a DNA binding domain of GAL4 or of EcR; and an activation domain of VP16. The reporter constructs include a reporter gene, luciferase or LacZ, operably linked to a synthetic promoter construct that comprises either GAL4 or EcR/USP binding sites (response elements). Various combinations of these receptor and reporter constructs were cotransfected into CHO, NIH3T3, CV1 and 293 cells. […] Reporter gene expression activities were assayed at 24 hr or 48 hr after ligand addition.
MmRXRDEF (SEQ ID NO: 22) was fused to a GAL4DNABD (SEQ ID NO: 41) and CfEcRCDEF (SEQ ID NO: 1) was fused to a VP16AD (SEQ ED NO: 45).
(§2) The same procedures described for CHO cells were followed for 3T3 cells as well with two modifications. The cells were plated when they reached 50% confluency. 125,000 or 50,000 or 25,000 cells were plated per well of 6- or 12- or 24-well plates respectively. The GAl4EcR/VP16RXR and reporter vector DNAs were transfected into NIH3T3 cells, the transfected cells were grown in medium containing PonA, MurA, N-(2-ethyl-3-methoxybenzoyl)-N′-(3,5-dimethylbenzoyl)-N′-t-butylhydrazine, or N-(3,4-(1,2-ethylenedioxy)-2-methylbenzoyl)-N′-(3,5-dimethylbenzoyl)-N′-tert-butylhydrazine for 48 hr. The ligand treatments were performed as described in the CHO cell section above.
(§3) Cells were harvested 24-48 hr after adding ligands. 125, 250, or 500 μl of passive lysis buffer (part of Dual-luciferase™ reporter assay system from Promega Corporation) were added to each well of 24- or 12- or […] respectively. The plates were placed on a rotary shaker for 15 min. Twenty μl of lysate was assayed. Luciferase activity was measured using Dual-luciferase™ reporter assay system from Promega Corporation following the manufacturer's instructions. β-Galactosidase was measured using Galacto-Star™ assay kit from TROPIX following the manufacturer's instructions. All luciferase and β-galactosidase activities were normalized using Renilla luciferase as a standard. Fold activities were calculated by dividing normalized relative light units (“RLU”) in ligand treated cells with normalized RLU in DMSO treated cells (untreated control).

CfEcR/RXR-based switch = assay: Luciferase reporter assay of truncated CfEcR and MmRXR receptor pairs in NIH3T3 cells (Example 2); assay type: cell-based, Choristoneura fumiferana; conditions: NIH3T3 cells, 0, 1, 5 or 25 uM ligand, 48 hr; FIGS. 11-14
Experimental: Briefly, polynucleotides encoding EcR or RXR receptors were truncated at the junctions of A/B, C, D, E and F domains and fused to either a GAL4 DNA binding domain encoding polynucleotide (SEQ ID NO: 41) for CfEcR, or a VP16 activation domain encoding polynucleotide (SEQ ID NO: 45) for MmRXR as described in Example 1. The resulting receptor truncation/fusion polypeptides were assayed in NIH3T3 cells. Plasmid pFRLUC (Stratagene) encoding a luciferase polypeptide was used as a reporter gene construct and pTKRL (Promega) encoding a Renilla luciferase polypeptide under the control of the constitutive TK promoter was used to normalize the transfections as described above. The analysis was performed in triplicates and mean luciferase counts were determined as described above.
Gene expression cassettes comprising polynucleotides encoding either full length or truncated CfEcR polypeptides fused to a GALA. […] The cells were harvested, lysed and luciferase reporter activity was measured in the cell lysates. […]

GAL4EcR + VP16RXR = assay: Transactivation of reporter genes through switch 1.1 in 3T3 cells; conditions: GAL4CfEcRDEF/VP16MmRXRDEF (switch 1.1), 1.0 μM ligand, 48 hr
From the text: as §1, §2, §3

CfEcR = assay: Comparison of switches in the mammalian cell lines tested (Tables 1-4); assay type: cell-based, Choristoneura fumiferana; conditions: see Tables 1-4
Experimental: Several commercially available lipofactors as well as electroporation methods were evaluated and the best conditions for transfection of each cell line were developed. CHO, NIH3T3, 293 and CV1 cells were grown to 60% confluency. DNAs corresponding, to the various switch constructs outlined in Examples 1.1 through 1.10 were transfected into CHO cells, NIH3T3 cells, 293 cells, or CV1 cells as follows.
Cells were harvested 24-48 hr after adding ligands. […] Twenty μl of lysate was assayed.

Compound	Mean Fold Induction at 1.0 μM Concentration (GAL4RXR + VP16CfEcR) [fold]	sensitivity of the EcR/RXR switch to the ligand (CfEcR/RXR-based switch)	Mean Fold Induction at 1.0 μM Concentration (GAL4EcR + VP16RXR) [fold]	potency as activators of CfEcR as compared to DmEcR (CfEcR)
CC(C)CC[C@@H](O)[C@](C)(O)[C@H]1CC[C@@]2(O)C3=CC(=O)[C@@H]4C[C@@H](O)[C@@H](O)C[C@]4(C)[C@H]3CC[C@]12C [Ponasterone A, reference compound]	1.0	insensitive	1.0	–
CC(C)CC[C@@H](O)[C@](C)(O)[C@H]1CC[C@@]2(O)C3=CC(=O)[C@]4(O)C[C@@H](O)[C@@H](O)C[C@]4(C)[C@H]3[C@H](O)C[C@]12C [Muristerone A, reference compound]	1.0	–	1.0	–
Cc1cc(C)cc(C(=O)N(NC(=O)c2ccc3c(c2C)OCCO3)C(C)(C)C)c1 [N-(3,4-(1,2-ethylenedioxy)-2-methylbenzoyl)-N′-(3,5-dimethylbenzoyl)-N′-tert-butylhydrazine]	54	–	601	more potent activators of CfEcR
